Test results published in patent EP1311531B1, “STEROID DERIVED ANTIBIOTICS” (Brigham Young University, priority 2000, dated 2002).
In brackets after ≈: the same amount, converted by molar mass. Like-named read-outs stand apart in the source and are kept apart here.

Assays:
E. coli (ATCC 10798) [1] = assay: MIC and MBC measurement; assay type: cell-based, Escherichia coli
In short: (§1)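 MIC taken as absence of turbidity in TSB tubes holding graded compound levels; MBC judged by comparing CFU/mL from TSA subcultures of clear samples against starting inoculum. Test agents were water-dissolved, filtered HCl salts, combined in some tubes with erythromycin or novobiocin.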

[2] = system: Salmonella typhimurium ATCC 14028; assay: MIC and MBC measurement; assay type: cell-based; conditions: Salmonella enterica
In short: as §1

[3] = system: Candida albicans ATCC 90028; assay: MIC and MBC measurement; assay type: cell-based; conditions: ATCC90028, Table 10
In short: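 Tube broth dilution in TSB with stepped concentrations of cholic acid derivatives, alone or with erythromycin or novobiocin. MIC = no measurable turbidity; MBC from overnight TSA subcultures of clear tubes, colony counts converted to CFU/mL versus original inoculum.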

[4] = system: Klebsiella pneumonia ATCC 13883; assay: Sensitization to erythromycin, novobiocin or rifampicin (permeabilization, FIC); assay type: cell-based, Klebsiella pneumoniae
[5] = Minimum hemolytic concentration (MHC); assay type: cell-based; conditions: Table 10
Description: Minimum inhibition concentrations (MIC) and minimum hemolytic concentrations (MHC) were measured as described in Li et al., Antimicrob. Agents. Chemother., 1999, 43, 1347. […]

E. coli (ATCC 10798) [6] = assay: Sensitization to erythromycin or novobiocin (outer membrane permeabilization, FIC); assay type: cell-based, Escherichia coli; conditions: for MBC: Escherichia coli; for MBC / concentration required to lower the MIC of erythromycin from 70 µg/mL to 1 µg/mL: E. coli (ATCC 10798); for concentration required to lower the MIC of erythromycin from 70 µg/mL to 1 µg/mL: Table 2
In short: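 E. coli in TSB received cholic acid derivatives, then erythromycin or novobiocin 15 minutes later, in checkerboard titration, stationary at 37°C for 24 hours. Turbidity was read at 760 nm; clear samples were subcultured on TSA for CFU/mL versus inoculum. FIC = sum of MIC-in-combination/MIC-alone ratios for compound and antibiotic.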

[7] = system: Escherichia coli ATCC 25922; conditions: ATCC25922
Description: (§3) FICs can be performed by checkerboard titrations of compounds in one dimension of a microtiter plate, and of antibiotics in the other dimension, for example. The FIC is calculated by looking at the impact of one antibiotic on the MIC of the other and vice versa. […] As used herein, FIC can be determined as follows: FIC = (MIC(compound in combination))/(MIC(compound alone)) + (MIC(antibiotic in combination))/(MIC(antibiotic alone)) [formula]
(§4) Concentrations of 0.5, 1.0 or 3.0 µg/mL of these antibiotics were used, and the concentrations of the cholic acid derivatives required to inhibit bacterial growth of Gram-negative strains were determined.

[8] = system: Enterococcus faeculis ATCC 29212; assay: MIC and MBC measurement; assay type: cell-based, Enterococcus faecalis; conditions: ATCC29212
Description: General: Microorganisms. Reference strains were purchased from the American Type Culture Collection (Rockville, MD) or Bactrol disks from Difeo Laboratories (Detroit, MI). […] Bacterial strains were maintained on Mueller-Hinton agar plates, and Candida albicans was maintained on Sabouraud Dextrose agar plates.
Aliquots (20 mL) of the homogeneous solution were then poured in sterile plastic petri dishes (100 x 15 mm, Fisher Scientific). Solutions of compounds were made by dissolving the HCl salt of the respective compound into an appropriate amount of deionized and sterilized water followed by microfiltration.
Aliquots of 1 mL of the suspension were added to test tubes containing 1 mL TSB and incrementally varied concentrations of cholic acid derivatives and/or erythromycin or novobiocin. […] Additionally, an alliquot from each of the samples showing no measurable turbidity was subcultured on TSA plates (alliquots were diluted to provide fewer than 300 CFU). Colonies that grew on the subculture after overnight incubation were counted and the number of CFU/mL in the samples were calculated. The calculated values were compared to the number of CFU/mL in the original inoculum.

[9] = system: Escherichia coli ATCC 25922; assay: MIC and MBC measurement; assay type: cell-based; conditions: Escherichia coli; for MIC: read-out: MIC
In short: (§2)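 Tube dilution in tryptic soy broth with compounds dissolved in water as HCl salts; stationary incubation 37°C for 24 hours, MIC from turbidity at 760 nm. MBC from subculture of non-turbid samples on TSA plates, CFU/mL compared with the original inoculum.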

[10] = system: Staphylococcus aureus ATCC 25923; assay: MIC and MBC measurement; assay type: cell-based; conditions: ATCC25923, Table 10, Staphylococcus aureus ATCC 25923; for MIC: read-out: MIC
In short: as §2

[11] = system: Escherichia coli ATCC 25922; assay: Sensitization to erythromycin, novobiocin or rifampicin (permeabilization, FIC); conditions: for FIC / concentration required for bacterial growth inhibition: Table 13, with rifampicin (order of b151), Escherichia coli ATCC 25922
Description: as §3, §4

[12] = Escherichia coli, ATCC10798, Table 1, E. coli (ATCC 10798), read-out: MBC
[13] = Escherichia coli, ATCC10798, Table 1, E. coli (ATCC 10798), read-out: MIC
[14] = Table 9, Escherichia coli (ATCC 10798)
[15] = Table 12, with novobiocin (order of b151), Klebsiella pneumonia ATCC 13883
[16] = Table 13, with rifampicin (order of b151), Klebsiella pneumonia ATCC 13883
[17] = ATCC10798, Table 2, with erythromycin
[18] = ATCC25922, Table 10, Escherichia coli ATCC 25922
[19] = ATCC25922, Table 4, E. coli (ATCC 25922)

Row | SMILES | MBC (E. coli (ATCC 10798) [1]; [12]) [µg/mL] | MIC (E. coli (ATCC 10798) [1]; [13]) [µg/mL] | MBC [2] [µg/mL] | MIC [2] [µg/mL] | MBC [3] [µg/mL] | MIC [3] [µg/mL] | FIC ([4]; ATCC13883) | concentration required for bacterial growth inhibition ([4]; ATCC13883) [µg/mL] | concentration required for bacterial growth inhibition [4, 15] [µg/mL] | FIC [4, 16] | concentration required for bacterial growth inhibition [4, 16] [µg/mL] | MHC [5] [µg/mL] | MBC (E. coli (ATCC 10798) [6]; [17]) [µg/mL] | concentration required to lower the MIC of erythromycin from 70 µg/mL to 1 µg/mL (E. coli (ATCC 10798) [6]; with erythromycin) [µg/mL] | concentration required for bacterial growth inhibition [7] [µg/mL] | MBC [8] [µg/mL] | MIC [8] [µg/mL] | MBC [9, 18] [µg/mL] | MIC [9, 18] [µg/mL] | MBC [10] [µg/mL] | other results
1 | C[C@H](CCCO)[C@H]1CC[C@H]2[C@@H]3[C@H](OCCCN)C[C@@H]4C[C@H](OCCCN)CC[C@]4(C)[C@H]3C[C@H](OCCCN)[C@]12C [Compound 10] | 60 (≈ 106 µM) | 36 (≈ 63.6 µM) | > 17 | 43 (≈ 76 µM) | 29 (≈ 51.2 µM) | 14 (≈ 24.7 µM) | 0.035 | 0.21 | 0.73 | 0.030 | 0.16 | 100 | 50 | 2 | 0.30 | 19 (≈ 33.6 µM) | 3.3 (≈ 5.83 µM) | 40 (≈ 70.7 µM) | 36 (≈ 63.6 µM) | 9.2 (≈ 16.3 µM) | MBC (E. coli (ATCC 10798) [1]; [14]): 60 µg/mL (≈ 106 µM); MIC (E. coli (ATCC 10798) [1]; [14]): 36 µg/mL (≈ 63.6 µM); (a) Concentration required to lower the MIC of erythromycin from 70 to 1 µg/mL (E. coli (ATCC 10798) [6]; [14]): 2.0 µg/mL; (b) MBC with 1 µg/mL erythromycin (E. coli (ATCC 10798) [6]; [14]): 50 µg/mL; (d) Concentration required to lower the MIC of novobiocin from >500 to 1 µg/mL (E. coli (ATCC 10798) [6]; [14]): 4.0 µg/mL; FIC^c (FIC values with erythromycin) (E. coli (ATCC 10798) [6]; [14]): 0.070; FIC^c (FIC values with novobiocin) (E. coli (ATCC 10798) [6]; [14]): 0.11; MIC [10]: 2 µg/mL (≈ 3.53 µM); FIC [11]: 0.085; concentration required for bacterial growth inhibition [11]: 0.70 µg/mL
2 | C[C@H](CCCN(C)Cc1ccccc1)[C@H]1CC[C@H]2[C@@H]3[C@H](OCCN)C[C@@H]4C[C@H](OCCN)CC[C@]4(C)[C@H]3C[C@H](OCCN)[C@]12C [Compound 1] | 34 (≈ 54.2 µM) | 20 (≈ 31.9 µM) | > 25 | 21 (≈ 33.5 µM) | > 50 | 49 (≈ 78.2 µM) | 0.072 | 1.0 | 4.7 | 0.043 | 0.40 | 78 | 20 | 2 | 0.35 | 50 (≈ 79.7 µM) | 4.9 (≈ 7.82 µM) | 22 (≈ 35.1 µM) | 22 (≈ 35.1 µM) | 5.7 (≈ 9.09 µM) | MBC (E. coli (ATCC 10798) [6]; ATCC10798, Table 3, with novobiocin): 34 µg/mL; MBC [9, 19]: 40 µg/mL (≈ 63.8 µM); MIC [9, 19]: 25 µg/mL (≈ 39.9 µM); MIC [10]: 3.1 µg/mL (≈ 4.94 µM); MBC ([11]; Escherichia coli, ATCC25922): 14 µg/mL; concentration required to lower the MIC of erythromycin from 60 µg/mL to 1 µg/mL ([11]; Table 5, E. coli (ATCC 25922), with erythromycin): 2 µg/mL; FIC [11]: 0.099; concentration required for bacterial growth inhibition [11]: 0.74 µg/mL
